Measurements taken from patent US7829332B2, “Purines are self-renewal signals for neural stem cells, and purine receptor antagonists promote neuronal and glial differentiation therefrom” (Cornell Research Foundation, Inc., priority 2004, dated 2010).

Legend:
Assay type in all cases: cell-based, mouse
neural progenitor cells = assay: Calcium imaging (fluo-4/am) of Ca2+i responses in 1-2 day cultures; settings: for increase of Ca2+i by purine receptor agonists: 1-2 day cultures; for effect of removal of extracellular Ca2+ on the Ca2+ response to the agonist: extracellular Ca2+ removed
Procedure: Neuronal cultures were prepared from E16 mice and maintained as earlier described (Nedergaard, M., Science 263:1768-1771 (1994), which is hereby incorporated by reference in its entirety). Cytosine arabinoside (20 μM) was added at 48 hr to eliminate proliferating cells. Neural progenitor cells were isolated from E13 mice as previously described (Morshead et al., Neuron 13:1071-82 (1994); Reynolds et al., Science 255:1707-10 (1992), which are hereby incorporated by reference in their entirety). The forebrains were collected in a Ca/Mg-free Hank's buffered saline solution (HBSS) and dissociated in 0.25% trypsin. The cells were resuspended at 4×10^6 cells/ml in DMEM/F12/N2 containing 10 ng/ml bFGF and 10 ng/ml EGF (Sigma, St. Louis, Mo.). The cells were plated at 4 ml/dish into 100 mm suspension culture plates and incubated at 37° C. in 5% CO2. The cells were passaged 2 to 3 times before use.
To test the idea that purinergic signaling is restricted to undifferentiated neural precursor cells, Ca^2+ responses to ATP were first examined as a function of time after plating either neural stem cells or differentiated neurons. Cultured mouse cortical neurons in near-pure neuronal cultures were loaded with fluo-4/am and exposed to either ATP (100 μM) or K^+ (60 mM). […] The responses to ATP fell by day 3 and were absent 9 days after plating. […] By 30 hours after plating, MAP2-defined neurons expressed substantially less P2Y receptor-immunoreactivity than did neighboring, MAP2^− cells (FIG. 1C). By 5 days, P2Y-immunoreactivity was restricted to GFAP^+ astrocytes.
ATP-induced Ca^2+i increments were inhibited by both suramin (100 μM) and reactive blue (RB; 30 μM), two mechanistically-unrelated inhibitors of purinergic signaling (FIG. 1D).

neural stem cells = assay: BrdU incorporation assay (mitotic index); settings: 4 hrs incubation
Procedure: For the BrdU incorporation assay, the cultures were incubated for 4 hrs in BrdU (Sigma, 10 μg/ml, 4 hrs), fixed and stained with rat monoclonal anti-BrdU (MAS250C, Harlan Sera-lab, Loughborough, UK; 1:200) and Cy3-conjugated goat anti-rat antibodies (Jackson ImmunoResearch, 1:300). Nuclei were visualized by Sytox (Molecular Probes, Inc.), and the mitotic index was calculated as the ratio of BrdU/Sytox positive nuclei. Limiting dilution analysis was performed as previously described (Keyoung et al., Nature Biotechnology 19:843-850 (2001); Uchida et al., Proc. Natl. Acad. Sci. 97:14720-14725 (2000), which are hereby incorporated by reference in their entirety).
Purinergic signaling has long-term effects on proliferation of numerous cell types, including rapidly replicating transformed cell lines (Burnstock, G., Arterioscler Thromb Vasc Biol 22:364-73 (2002); Michoud et al., Am J Respir Cell Mol Biol 27:732-8 (2002); Sauer et al., J Cell Sci 115:3265-73 (2002); Tu et al., Br J Pharmacol 129:1481-9 (2000), which are hereby incorporated by reference in their entirety). To better define the mitogenic effects of P2Y on neural progenitor cells, the mitogenic effects of ATP, its analogs, and its dephosphorylated metabolites were compared. To this end, BrdU incorporation by neural stem cells was quantified after 4 hrs incubation in each treatment.

[1] = tested on: neuroepithelial cells / neural spheres; assay: ATP release, luciferin-luciferase bioluminescence
Procedure: ATP release from living cells were dynamically imaged by chemiluminescence as described in (Arcuino et al., Proc Natl Acad Sci USA 99:9840-5 (2002), which is hereby incorporated by reference in its entirety). Neural spheres were after a light spin resuspended in Ringer's solution and mounted in a temperature controlled Leiden chamber. Luciferase (0.132 mg/ml) and luciferin (0.332 mg/ml) was added to the Ringer solution. After obtaining a baseline recording of 5 minutes duration, the cultures were stimulated by adding an equal volume of Ca^2+-free Ringer solution containing 100 μM UTP. Light production from the luciferin-luciferase reaction was imaged by a liquid nitrogen-cooled CCD camera (VersArray 1300B, Princeton Instruments), using a 20× oil lens (N.A. 0.8, Olympus), 8×8 binning, and two seconds integration. ATP content in samples collected from cultures grown in 24-well tissue culture plates was measured using a Victor2 plate reader (Wallac) (Cotrina et al., Proc. Natl. Acad. Sci. 95:15735-15740 (1998), which is hereby incorporated by reference in its entirety) and normalized to the protein content (BioRad) or to the cell number. A minimum of 8 independent experiments was evaluated (n≧8, most >20). When drugs or serum were used, the standards were adjusted to containing an equivalent amount. […]

Compound	increase of Ca2+i by purine receptor agonists (neural progenitor cells)	proliferation (BrdU incorporation) (neural stem cells)	further results
Nc1ncnc2c1ncn2[C@@H]1O[C@H](COP(=O)(O)CP(=O)(O)OP(=O)(O)O)[C@@H](O)[C@H]1O [αβATP]	failed to evoke Ca^2+ responses		
CSc1nc(N)c2ncn([C@@H]3O[C@H](COP(=O)(O)OP(=O)(O)OP(=O)(O)O)[C@@H](O)[C@H]3O)c2n1 [2-MeSATP, 2-methylthio-adenosine triphosphate]	increased Ca^2+i with roughly equal potency		effect of removal of extracellular Ca2+ on the Ca2+ response to the agonist (neural progenitor cells): did not significantly decrease
Nc1ncnc2c1ncn2[C@@H]1O[C@H](COP(=O)(O)OP(=O)(O)OP(=O)(O)O)[C@@H](O)[C@H]1O [ATP, adenosine triphosphate]	increased Ca^2+i with roughly equal potency	increased proliferation in a dose-dependent manner	concentration at which proliferation peaked (neural stem cells): 100 µM; Ca2+ response (neural progenitor cells; 100 μM, cultures younger than 2 days in vitro): Transient increments in Ca^2+ were triggered; effect of removal of extracellular Ca2+ on the Ca2+ response to the agonist (neural progenitor cells): did not significantly decrease
apyrase		inhibited proliferation	
Nc1ncnc2c1ncn2[C@@H]1O[C@H](CO)[C@@H](O)[C@H]1O [adenosine]		failed to stimulate proliferation	
Nc1ncnc2c1ncn2[C@@H]1O[C@H](COP(=O)(O)CP(=O)(O)O)[C@@H](O)[C@H]1O [AMPCP, α,β-methyl adenosine diphosphate]		potently enhanced	
O=c1ccn([C@@H]2O[C@H](COP(=O)(O)OP(=O)(O)OP(=O)(O)O)[C@@H](O)[C@H]2O)c(=O)[nH]1 [UTP, uridine triphosphate]	increased Ca^2+i with roughly equal potency	comparable effects	ATP release from neural spheres, bioluminescence imaging ([1]; 100 μM, neural spheres): frequent point-source bursts of light emission; ATP release evoked by purine receptor activation ([1]; neuroepithelial cells, first 2 days in vitro): evoked robust ATP release
Nc1ncnc2c1ncn2[C@@H](C=O)O[C@@H](C=O)COP(=O)(O)OP(=O)(O)OP(=O)(O)O [oxidized ATP, periodate oxidized adenosine 5′-triphosphate]			reduction of ATP-evoked Ca2+ responses (neural progenitor cells; 300 μM, 1 hr, p=0.4, Student's t test): did not significantly reduce
Nc1ncnc2c1ncn2[C@@H]1O[C@H](COP(=O)(O)OP(=O)(O)O)[C@@H](O)[C@H]1O [ADP, adenosine diphosphate]	increased Ca^2+i with roughly equal potency	comparable effects	
CCNC(=O)[C@H]1O[C@@H](n2cnc3c(N)ncnc32)[C@H](O)[C@@H]1O [NECA]		failed to stimulate proliferation	
Nc1nc(Cl)nc2c1ncn2[C@@H]1O[C@H](COP(=O)(O)OP(=O)(O)OP(=O)(O)O)[C@@H](O)[C@H]1O [2-Cl-ATP, 2-chloro-adenosine triphosphate]	increased Ca^2+i with roughly equal potency	comparable effects	
Nc1ncnc2c1ncn2[C@@H]1O[C@H](COP(=O)(O)OP(=O)(O)OP(O)(O)=S)[C@@H](O)[C@H]1O [γSATP, γ-thio-adenosine triphosphate]	increased Ca^2+i with roughly equal potency	comparable effects	
